Data from PMC10581520 (Veterinární Medicína, 2023).
“And” between values parts separate entries of the source, which are not always exact repeats. Identical values can stand only once. Like-named read-outs stand apart in the source and are kept apart here. Values belong to the molecule of their own block, whether it stands above or below them.

What was measured:
[1] = in dogs; ref Matsui et al. 1995; cited from earlier work
[2] = tested on: Beagle dog liver microsomes; assay: Kinetic study: N-demethylation of CIT and DCIT in Beagle dog liver microsomes; assay type: in vitro ADME; settings: for IC of N-demethylation, Beagle dogs versus humans: liver microsomes, dog data of this study compared with literature human data; for Km1 / Km2 / Vmax1 / Vmax2: dog liver microsomes
[3] = as above; assay type: in vitro ADME; settings: Beagle, dog, liver microsomes, pH 7.4
Beagle dogs = settings: cited from earlier work
patients = settings: cited from earlier work; for arrhythmia risk category: associated risk of arrhythmia and possible TdP risk, ref Fanoe et al. 2014; for effect on QTc-interval and risk for torsades de pointes (TdP): patients; for risk group classification: ref www.crediblemeds.org
Human liver microsomes = settings: cited from earlier work
[4] = tested on: serotonin [5-hydroxytryptamine (5-HT)] reuptake; settings: compared with S-CIT; ref Hyttel et al. 1992; Hyttel 1993; cited from earlier work
[5] = tested on: dog liver microsomes (CYP2D15, CYP3A12, CYP2C21/41); assay type: in vitro ADME, Beagle dog; settings: for effect on the production of the DCIT and DDCIT enantiomers: dog liver microsomes, data not shown
[6] = tested on: N-demethylation of DCIT; CYP3A12 (ketoconazole), CYP2C21/41 (omeprazole); assay type: in vitro ADME, Beagle dog; settings: Beagle, dog, liver microsomes, pH 7.4, probe DCIT 10 and 100 μM, formation of DDCIT
[7] = tested on: N-demethylation of DCIT; CYP2D15 (quinidine); assay type: in vitro ADME, Beagle dog; settings: Beagle, dog, liver microsomes
[8] = substrate CIT, metabolite R-DCIT
[9] = substrate CIT, metabolite S-DCIT
[10] = substrate DCIT, metabolite DDCIT
[11] = substrate DCIT, metabolite R-DDCIT
[12] = substrate DCIT, metabolite S-DDCIT
[13] = 100 μM quinidine, 10 μM DCIT, n = 3

Compound: CN(C)CCCC1(c2ccc(F)cc2)OCc2cc(C#N)ccc21 (stereo not shown) [CIT, citalopram]
- mean elimination half-life [1]: 9.6 h
- IC of N-demethylation, Beagle dogs versus humans [2]: about 10 times higher
- Km1 ([2]; substrate CIT, metabolite DCIT): 1.1 µM and 1.1 ± 0.3 µM
- Km2 ([2]; substrate CIT, metabolite DCIT): 1 006 μM
- Vmax1 ([2]; substrate CIT, metabolite DCIT): 47 ± 3 pmol/(min × mg of protein)
- Vmax2 ([2]; substrate CIT, metabolite DCIT): 591 ± 28 pmol/(min × mg of protein)
- Km1 [2, 8]: 1.4 ± 0.5 µM
- Vmax1 [2, 8]: 21 ± 2 pmol/(min × mg of protein)
- Vmax2 [2, 8]: 338 ± 24 pmol/(min × mg of protein)
- Km1 [2, 9]: 1.0 ± 0.2 µM
- Km2 [2, 9]: 848 ± 69 µM
- Vmax1 [2, 9]: 26 ± 1 pmol/(min × mg of protein)
- Vmax2 [2, 9]: 264 ± 10 pmol/(min × mg of protein)
- Km at 1 h [3]: ≤ 1.4 µM
- convulsive effect in dogs (Beagle dogs; dogs, ref Boeck and Overo 1982): severe convulsive attacks
- electrocardiographic changes in dogs (Beagle dogs; dogs, ref Boeck and Overo 1982): no electrocardiographic changes were observed
- arrhythmia risk category (patients): Class B
- effect on QTc-interval and risk for torsades de pointes (TdP) (patients): increase the QTc-interval
- risk group classification (patients): risk group 1
- Km (Human liver microsomes; read-out: Km values, stereoselective CIT N-demethylation, human liver microsomes, ref Rochat et al. 1997, Olesen and Linnet 1999, von Moltke et al. 2001): ≥ 17.3 µM

Compound: CNCCCC1(c2ccc(F)cc2)OCc2cc(C#N)ccc21 (stereo not shown) [DCIT, desmethylcitalopram]
- mean elimination half-life [1]: 8.1 h
- IC of N-demethylation, Beagle dogs versus humans [2]: about 30 times higher
- Km1 [2, 10]: 0.6 ± 0.2 µM
- Km2 [2, 10]: 137 ± 18 µM
- Vmax1 [2, 10]: 44 ± 4 pmol/(min × mg of protein)
- Vmax2 [2, 10]: 155 ± 5 pmol/(min × mg of protein)
- Km1 [2, 11]: 0.3 ± 0.2 µM
- Km2 [2, 11]: 212 µM and 212 ± 24 µM
- Vmax1 [2, 11]: 11 ± 2 pmol/(min × mg of protein)
- Vmax2 [2, 11]: 105 ± 3 pmol/(min × mg of protein)
- Km1 [2, 12]: 0.6 ± 0.1 µM
- Km2 [2, 12]: 66 µM and 66 ± 11 µM
- Vmax1 [2, 12]: 31 ± 3 pmol/(min × mg of protein)
- Vmax2 [2, 12]: 55 ± 2 pmol/(min × mg of protein)
- Km at 1 h [3]: ≤ 1.4 µM
- potency as serotonin reuptake inhibitors [4]: lower than that of S-CIT
- IC values, N-demethylation of DCIT enantiomers (Human liver microsomes; humans, ref von Moltke et al. 2001): ≤ 1.3 pmol/(min × mg protein)
- Km (Human liver microsomes; read-out: Km values, N-demethylation of DCIT enantiomers, humans, ref von Moltke et al. 2001): ≥ 72 µM

Compound: N#Cc1ccc2c(c1)COC2(CCCN)c1ccc(F)cc1 (stereo not shown) [DDCIT, didesmethylcitalopram]
- mean elimination half-life [1]: 27.8 h
- plasma level to which DDCIT toxicity is related (Beagle dogs; dog, ref Shanks et al. 2009): ≥ 1 000 nM and ≥ 300 ng/ml
- potency as serotonin reuptake inhibitors [4]: lower than that of S-CIT

Compound: CN(C)CCC[C@@]1(c2ccc(F)cc2)OCc2cc(C#N)ccc21 [S-CIT, S-citalopram]
- arrhythmia risk category (patients): Class B
- effect on QTc-interval and risk for torsades de pointes (TdP) (patients): increase the QTc-interval
- risk group classification (patients): risk group 1

- effect on the production of the DCIT and DDCIT enantiomers [5]: did not notably modify
Compound: Cc1nc2c([nH]1)c(=O)n(C)c(=O)n2Cc1ccco1 [furafylline]

- inhibition at 1 h [6]: < 15%
Compound: CC(=O)N1CCN(c2ccc(OCC3COC(Cn4ccnc4)(c4ccc(Cl)cc4Cl)O3)cc2)CC1 (stereo not shown) [ketoconazole]

- inhibition at 1 h [6]: < 15%
Compound: COc1ccc2[nH]c([S+]([O-])Cc3ncc(C)c(OC)c3C)nc2c1 (stereo not shown) [omeprazole]

- difference in the production of S-DCIT from CIT in comparison to absence of the inhibitor ([5]; 100 μM quinidine, 10 μM CIT, n = 5): 36.9 ± 8.53 pmol/(min × mg protein)
- difference of the production of R-DDCIT in comparison to absence of the inhibitor [5, 13]: 63.3 ± 2.72 pmol/(min × mg protein)
- difference of the production of S-DDCIT in comparison to absence of the inhibitor [5, 13]: 172 ± 6.6 pmol/(min × mg protein)
- inhibition at 1 h, 100 μM ([7]; pH 7.4, probe DCIT 10 μM, formation of R-DDCIT): 80.5%
- inhibition at 1 h, 100 μM ([7]; pH 7.4, probe DCIT 10 μM, formation of S-DDCIT): 86.4%
- inhibition at 1 h, 100 μM ([7]; pH 7.4, probe DCIT 100 μM, formation of R-DDCIT): 61.6%
- inhibition at 1 h, 100 μM ([7]; pH 7.4, probe DCIT 100 μM, formation of S-DDCIT): 57.6%
Compound: C=C[C@H]1C[N@@]2CC[C@H]1C[C@@H]2[C@@H](O)c1ccnc2ccc(OC)cc12 [quinidine]

- effect on the production of the DCIT and DDCIT enantiomers [5]: did not notably modify
Compound: Nc1ccc(S(=O)(=O)Nc2ccnn2-c2ccccc2)cc1 [sulphaphenazole]
